How the values were obtained:
Assay in all cases: Test C pre-/postemergence herbicide test
cocklebur = format: in vivo, Xanthium strumarium; conditions: preemergence; for Plant response rating (0 = no effect, 100 = complete control), Cocklebur: 125 g ai/ha
Procedure, shortened: (§1)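 Visual injury scores run from 0 (no effect) to 100 (complete control), assessed relative to untreated controls 12 to 14 days after treatment in the greenhouse. Chemicals were formulated in a non-phytotoxic solvent mixture with surfactant and applied to soil after planting or to emerged plants at the 1- to 4-leaf stage.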

kochia = format: in vivo, Kochia scoparia; conditions: preemergence; for Plant response rating (0 = no effect, 100 = complete control), Kochia: 125 g ai/ha
Procedure, shortened: as §1

bermudagrass = format: in vivo, Cynodon dactylon; conditions: preemergence; for Plant response rating (0 = no effect, 100 = complete control), Bermudagrass: 125 g ai/ha
Procedure, shortened: as §1

corn = format: in vivo, Zea mays; conditions: preemergence; for Plant response rating (0 = no effect, 100 = complete control), Corn: 125 g ai/ha
Procedure, shortened: as §1

goosegrass = format: in vivo, Eleusine indica; conditions: preemergence; for Plant response rating (0 = no effect, 100 = complete control), Goosegrass: 125 g ai/ha
Procedure, shortened: as §1

[1] = system: common (oilseed) sunflower; format: in vivo, Helianthus annuus; conditions: preemergence; for Plant response rating (0 = no effect, 100 = complete control), Sunflower: 125 g ai/ha
Procedure, shortened: as §1

large crabgrass = format: in vivo, Digitaria sanguinalis; conditions: preemergence; for Plant response rating (0 = no effect, 100 = complete control), Crabgrass, Large: 125 g ai/ha
Procedure, shortened: as §1

giant foxtail = format: in vivo, Setaria faberi; conditions: preemergence; for Plant response rating (0 = no effect, 100 = complete control), Foxtail, Giant: 125 g ai/ha
Procedure, shortened: as §1

Surinam grass = format: in vivo, Urochloa decumbens; conditions: preemergence; for Plant response rating (0 = no effect, 100 = complete control), Surinam Grass: 125 g ai/ha
Procedure, shortened: as §1

[2] = 500 g ai/ha, scale 0 to 100 (0 no effect, 100 complete control), visual, 12 to 14 days
[3] = 62 g ai/ha, scale 0 to 100, 0 no effect, 100 complete control

Row | Structure (SMILES) | Plant response rating, Cocklebur (cocklebur; 62 g ai/ha, scale 0 to 100) | Plant response rating (0 = no effect, 100 = complete control), Cocklebur (cocklebur) | Plant response rating, Cocklebur (cocklebur; 250 g ai/ha, scale 0-100) | Plant response rating, Cocklebur (cocklebur; [2]) | Plant response rating, Kochia (kochia; 62 g ai/ha, scale 0 to 100) | Plant response rating (0 = no effect, 100 = complete control), Kochia (kochia) | Plant response rating, Kochia (kochia; 250 g ai/ha, scale 0-100) | Plant response rating, Kochia (kochia; [2]) | Plant response rating, Bermudagrass (bermudagrass; [3]) | Plant response rating (0 = no effect, 100 = complete control), Bermudagrass (bermudagrass) | Plant response rating, Bermudagrass (bermudagrass; 250 g ai/ha, scale 0-100) | Plant response rating, Bermudagrass (bermudagrass; [2]) | Plant response rating, Corn (corn; 62 g ai/ha, scale 0 to 100) | Plant response rating (0 = no effect, 100 = complete control), Corn (corn) | Plant response rating, Corn (corn; 250 g ai/ha, scale 0-100) | Plant response rating, Corn (corn; [2]) | Plant response rating, Goosegrass (goosegrass; 62 g ai/ha, scale 0 to 100) | Plant response rating (0 = no effect, 100 = complete control), Goosegrass (goosegrass) | Plant response rating, Goosegrass (goosegrass; 250 g ai/ha, scale 0-100) | Plant response rating, Goosegrass (goosegrass; [2]) | also measured
1 | CCC1=NN(C(C)(C)C)CC1C(=O)Nc1cc(C(=O)N(C)CC)ccc1F (racemic) [Compound 342] | 10 | 30 | 60 | 100 | 50 | 100 | 100 | 100 | 45 | 60 | 90 | 90 | 10 | 50 | 70 | 90 | 60 | 65 | 65 | 90 | Plant response rating, Sunflower ([1]; 62 g ai/ha, scale 0 to 100): 5; Plant response rating (0 = no effect, 100 = complete control), Sunflower [1]: 20; Plant response rating, Sunflower ([1]; 250 g ai/ha, scale 0-100): 75; Plant response rating, Sunflower [1, 2]: 100; Plant response rating, Crabgrass, Large (large crabgrass; 62 g ai/ha, scale 0 to 100): 60; Plant response rating (0 = no effect, 100 = complete control), Crabgrass, Large (large crabgrass): 60; Plant response rating, Crabgrass, Large (large crabgrass; 250 g ai/ha, scale 0-100): 70; Plant response rating, Crabgrass, Large (large crabgrass; [2]): 85; Plant response rating, Foxtail, Giant (giant foxtail; 62 g ai/ha, scale 0 to 100): 0; Plant response rating (0 = no effect, 100 = complete control), Foxtail, Giant (giant foxtail): 40; Plant response rating, Foxtail, Giant (giant foxtail; 250 g ai/ha, scale 0-100): 55; Plant response rating, Foxtail, Giant (giant foxtail; [2]): 70; Plant response rating, Surinam Grass (Surinam grass; 62 g ai/ha, scale 0 to 100): 40; Plant response rating (0 = no effect, 100 = complete control), Surinam Grass (Surinam grass): 90; Plant response rating, Surinam Grass (Surinam grass; 250 g ai/ha, scale 0-100): 100; Plant response rating, Surinam Grass (Surinam grass; [2]): 100
2 | CCC1=NN(C(C)(C)C)CC1C(=O)Nc1cc(C(=O)N2CC=CC2)ccc1F (racemic) [Compound 340] | 0 | 0 | 0 | 40 | 10 | 20 | 90 | 100 | 20 | 70 | 85 | 100 | 5 | 45 | 45 | 50 | 5 | 60 | 85 | 90 | Plant response rating, Sunflower ([1]; 62 g ai/ha, scale 0 to 100): 0; Plant response rating (0 = no effect, 100 = complete control), Sunflower [1]: 0; Plant response rating, Sunflower ([1]; 250 g ai/ha, scale 0-100): 0; Plant response rating, Sunflower [1, 2]: 5; Plant response rating, Crabgrass, Large (large crabgrass; 62 g ai/ha, scale 0 to 100): 50; Plant response rating (0 = no effect, 100 = complete control), Crabgrass, Large (large crabgrass): 70; Plant response rating, Crabgrass, Large (large crabgrass; 250 g ai/ha, scale 0-100): 100; Plant response rating, Crabgrass, Large (large crabgrass; [2]): 100; Plant response rating, Foxtail, Giant (giant foxtail; 62 g ai/ha, scale 0 to 100): 0; Plant response rating (0 = no effect, 100 = complete control), Foxtail, Giant (giant foxtail): 10; Plant response rating, Foxtail, Giant (giant foxtail; 250 g ai/ha, scale 0-100): 60; Plant response rating, Foxtail, Giant (giant foxtail; [2]): 85; Plant response rating, Surinam Grass (Surinam grass; 62 g ai/ha, scale 0 to 100): 0; Plant response rating (0 = no effect, 100 = complete control), Surinam Grass (Surinam grass): 60; Plant response rating, Surinam Grass (Surinam grass; 250 g ai/ha, scale 0-100): 65; Plant response rating, Surinam Grass (Surinam grass; [2]): 85
